Measured values taken from patent publication US8022205B2, “Pyrimidine derivatives as PI3K inhibitor and use thereof” (Chugai Seiyaku Kabushiki Kaisha, priority 2006, dated 2011).
Counter-ions that a name gives are not always drawn.

What was measured:
[1] = test system: human colon cancer cell line HCT116; assay: Cell proliferation inhibitory activity (Cell Counting Kit-8), colon cancer HCT116; format: cell-based; settings: HCT-116, 96 h, HCT116, 4 days
Description: (§1) The cell proliferation inhibitory activity was measured for compounds of the present invention represented by formula (I). Cancer cell proliferation inhibitory activity was measured using the Cell Counting Kit-8 (Dojindo). 2000 cells each of human colon cancer cell line HCT116 purchased from the American Type Culture Collection (Virginia, USA) were seeded into each well of a 96-well culture plate followed by the addition of a predetermined concentration of the compounds and cultivating in a CO2environment for 4 days at 37° C. On the fourth day of cultivating, the Cell Counting Kit-8 solution was added and absorbance (measuring wavelength: 450 nm, reference wavelength: 615 nm) was measured in accordance with the protocol provided with the kit.

[2] = molecular target: human PI3K(p110α/p85α) (Homo sapiens, UniProt P42336); assay: Measurement of PI3K inhibitory activity (AlphaScreen GST Detection Kit); format: biochemical; settings: 10 μM ATP, 4 μM PI(4,5)P2, read-out: Enzyme inhibitory activity (IC50, μM) PI3K α
Description: The inhibitory activity of compounds of the present invention represented by formula (I) were measured with human PI3K(p110α/p85α) prepared in a baculovirus expression system using the AlphaScreen GST Detection Kit (Perkin Elmer, Inc.). A predetermined concentration of the compound dissolved in dimethylsulfoxide (DMSO) and PI3K were mixed in a 384-well assay plate and after allowing to stand for 20 minutes at room temperature, 4 μM PI(4,5)P2 (Echelon Corporation) and 10 μM ATP (5 mM Hepes, pH 7.5, 2.5 mM MgCl2) were added to initiate the reaction. After reacting for 15 minutes at 37° C., GST-GRP1 expressed and purified from Escherichia coli, Anti-GST Acceptor Beads (Perkin Elmer, Inc.), Streptavidin Donor Beads (Perkin Elmer, Inc.) and biotin-PI(3,4,5) P3 (Echelon Corporation) (10 mM Tris-HCl pH 7.4, 150 mM NaCl, 7.5 mM EDTA, 1 mM DTT, 0.1% Tween 20) were added, and after allowing to stand for 1 hour at room temperature, light at 520 to 620 nm emitted as a result of exciting with light at 680 nm was measured with the Envision measuring instrument (Perkin Elmer, Inc.).
Test Example 1 described above can be performed according to “Analytical Biochemistry, 2003, 313, 234-245; Alexander Gray et al”.

[3] = test system: human lung cancer cell line NCI-H460; assay: Cell proliferation inhibitory activity (Cell Counting Kit-8), lung cancer NCI-H460; format: cell-based; settings: 96 h, NCI-H460, 4 days, read-out: Cell proliferation inhibitory activity (% Inhibition at 2.5 μM) Non-small cell lung cancer (NCI-H460)
Description: as §1
(§2) Cancer cell proliferation inhibitory activity was also measured for human lung cancer cell line NCI-H460 and human prostate cancer cell line PC3 purchased from the American Type Culture Collection. 1000 and 3000 cells of NCI-H460 and PC3, respectively, were seeded into each well of a 96-well culture plate followed by testing in the same manner as the human colon cancer cell line and calculating the percentage of cell proliferation inhibition at 2.5 μM.

[4] = test system: human prostate cancer cell line PC3; assay: Cell proliferation inhibitory activity (Cell Counting Kit-8), prostate cancer PC3; format: cell-based; settings: 96 h, PC3, 4 days
Description: as §1, §2

human PI3K(p110α/p85α), sequence (P42336 whole entry): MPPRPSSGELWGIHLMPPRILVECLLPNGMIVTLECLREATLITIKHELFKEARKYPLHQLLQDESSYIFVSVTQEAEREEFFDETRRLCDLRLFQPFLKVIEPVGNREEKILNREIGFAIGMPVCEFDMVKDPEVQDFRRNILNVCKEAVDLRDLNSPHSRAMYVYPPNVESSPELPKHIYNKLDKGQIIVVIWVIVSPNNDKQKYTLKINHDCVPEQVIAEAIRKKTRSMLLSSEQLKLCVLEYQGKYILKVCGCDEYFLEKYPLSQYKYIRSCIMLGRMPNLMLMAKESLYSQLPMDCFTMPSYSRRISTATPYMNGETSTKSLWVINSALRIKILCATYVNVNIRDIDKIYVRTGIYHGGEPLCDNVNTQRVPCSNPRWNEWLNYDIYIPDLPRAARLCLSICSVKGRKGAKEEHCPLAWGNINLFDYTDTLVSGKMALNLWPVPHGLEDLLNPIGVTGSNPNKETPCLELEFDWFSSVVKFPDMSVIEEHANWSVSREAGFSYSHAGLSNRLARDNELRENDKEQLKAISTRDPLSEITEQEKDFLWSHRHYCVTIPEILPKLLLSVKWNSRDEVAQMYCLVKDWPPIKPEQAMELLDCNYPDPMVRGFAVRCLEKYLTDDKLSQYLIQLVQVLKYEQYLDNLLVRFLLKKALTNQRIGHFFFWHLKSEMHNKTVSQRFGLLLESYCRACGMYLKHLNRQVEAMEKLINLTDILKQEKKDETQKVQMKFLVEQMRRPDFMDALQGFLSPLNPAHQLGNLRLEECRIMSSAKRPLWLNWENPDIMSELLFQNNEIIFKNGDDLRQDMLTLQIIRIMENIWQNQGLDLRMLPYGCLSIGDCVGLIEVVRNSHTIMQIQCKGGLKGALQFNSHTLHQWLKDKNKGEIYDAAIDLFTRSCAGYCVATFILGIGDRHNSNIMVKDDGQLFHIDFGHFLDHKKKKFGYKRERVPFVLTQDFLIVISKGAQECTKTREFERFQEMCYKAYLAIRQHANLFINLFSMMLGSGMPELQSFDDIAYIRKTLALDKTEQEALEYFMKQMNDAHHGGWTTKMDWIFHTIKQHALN
human PI3K(p110α/p85α), sequence (P27986 whole entry partner): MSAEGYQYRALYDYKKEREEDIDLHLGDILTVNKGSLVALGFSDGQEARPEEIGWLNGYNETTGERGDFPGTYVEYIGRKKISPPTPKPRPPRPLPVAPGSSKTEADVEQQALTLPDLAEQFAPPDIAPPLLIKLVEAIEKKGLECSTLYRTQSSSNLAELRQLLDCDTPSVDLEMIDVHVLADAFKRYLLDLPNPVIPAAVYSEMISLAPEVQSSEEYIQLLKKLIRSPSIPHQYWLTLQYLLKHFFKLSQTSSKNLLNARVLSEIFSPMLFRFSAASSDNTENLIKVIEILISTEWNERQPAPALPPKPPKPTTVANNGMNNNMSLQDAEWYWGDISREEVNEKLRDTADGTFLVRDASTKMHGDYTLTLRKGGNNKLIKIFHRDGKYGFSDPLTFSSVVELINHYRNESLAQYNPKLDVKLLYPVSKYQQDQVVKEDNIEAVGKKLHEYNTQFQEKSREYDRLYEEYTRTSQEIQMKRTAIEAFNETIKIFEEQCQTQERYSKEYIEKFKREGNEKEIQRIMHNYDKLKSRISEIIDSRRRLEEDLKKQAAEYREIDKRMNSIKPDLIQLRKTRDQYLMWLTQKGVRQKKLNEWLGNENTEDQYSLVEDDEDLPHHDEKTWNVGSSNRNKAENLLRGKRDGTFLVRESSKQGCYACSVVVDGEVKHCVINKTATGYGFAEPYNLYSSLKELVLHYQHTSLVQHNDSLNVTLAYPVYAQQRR

Structure (SMILES)	IC50 [2]	inhibition at 2.5 µM [1]	inhibition at 2.5 µM [3]	inhibition at 2.5 µM [4]
Nc1ncc(-c2nc(N3CCOCC3)nc3c2CCN3c2ccc(CN3CCN(CCC(F)(F)F)CC3)cc2)cn1 [Example D-332, 5-(2-morpholin-4-yl-7-{4-[4-(3,3,3-trifluoropropyl)piperazin-1-ylmethyl]-phenyl}-6,7-dihydro-5H-pyrrolo[2,3-d]pyrimidin-4-yl}-pyrimidin-2-ylamine]	0.21 µM	60%	54%	43%
NCc1ccc(-c2nc(N3CCOCC3)nc3c2CCN3c2ccncc2)cc1 [Example B-32, 4-(2-Morpholin-4-yl-7-pyridin-4-yl-6,7-dihydro-5H-pyrrolo[2,3-d]pyrimidin-4-yl)-benzylamine hydrochloride]	0.47 µM	78%	67%	29%
Nc1ncc(-c2nc(N3CCOCC3)nc3c2CCN3c2cc(C(=O)N3CCOCC3)ccc2F)cn1 [Example D-16, {3-[4-(2-Amino-pyrimidin-5-yl)-2-morpholin-4-yl-5,6-dihydro-pyrrolo[2,3-d]pyrimidin-7-yl]-4-fluoro-phenyl}-morpholin-4-yl-methanone]	0.23 µM	74%	76%	73%
OCc1cc(-c2nc(N3CCOCC3)nc3c2CCN3c2ccncc2)ccc1F [Example B-35, [2-Fluoro-5-(2-morpholin-4-yl-7-pyridin-4-yl-6,7-dihydro-5H-pyrrolo[2,3-d]pyrimidin-4-yl)-phenyl]-methanol]	0.87 µM	78%	71%	61%
CN1CCN(Cc2ccc3cc(N4CCc5c(-c6cnc(N)nc6)nc(N6CCOCC6)nc54)ccc3c2)CC1 [Example D-333, 5-{7-[6-(4-methyl-piperazin-1-ylmethyl)naphthalen-2-yl]-2-morpholin-4-yl-6,7-dihydro-5H-pyrrolo[2,3-d]pyrimidin-4-yl}-pyrimidin-2-ylamine]	0.16 µM	99%	102%	43%
CN(C)CCOC(=O)c1cccc(-c2nc(N3CCOCC3)nc3c2CCN3c2cccnc2)c1 [Example G-27, 3-(2-Morpholin-4-yl-7-pyridin-3-yl-6,7-dihydro-5H-pyrrolo[2,3-d]pyrimidin-4-yl)-benzoic acid 2-dimethylamino-ethyl ester]	0.33 µM	44%	18%	48%
CS(=O)(=O)N1CCc2c(-c3cnc(N)nc3)nc(N3CCOCC3)nc21 [Example D-02, 5-(7-Methanesulfonyl-2-morpholin-4-yl-6,7-dihydro-5H-pyrrolo[2,3-d]pyrimidin-4-yl)-pyrimidin-2-ylamine]	–	81%	83%	87%
Nc1ncc(-c2nc(N3CCOCC3)nc3c2CCN3c2ccc(CN3CCN(CCCCF)CC3)cc2)cn1 [Example D-330, 5-(7-{4-[4-(4-fluorobutyl)-piperazin-1-ylmethyl]-phenyl}-2-morpholin-4-yl-6,7-dihydro-5H-pyrrolo[2,3-d]pyrimidin-4-yl)-pyrimidin-2-ylamine]	–	25%	-13%	0%

Continued by falling IC50 [2], values first:

IC50 [2]	Structure (SMILES)	inhibition at 2.5 µM [1]	inhibition at 2.5 µM [3]	inhibition at 2.5 µM [4]
0.11 µM	CCN1CCN(C(=O)c2ccc(N3CCc4c(-c5cnc(N)nc5)nc(N5CCOCC5)nc43)c(F)c2)CC1 [Example D-138, {4-[4-(2-Amino-pyrimidin-5-yl)-2-morpholin-4-yl-5,6-dihydro-pyrrolo[2,3-d]pyrimidin-7-yl]-3-fluoro-phenyl}-(4-ethyl-piperazin-1-yl)-methanone]	82%	86%	85%
0.08 µM	Oc1cccc(-c2nc(N3CCOCC3)nc3c2CCN3c2ccc3[nH]cnc3c2)c1 [Example A-14, 3-[7-(1H-benzimidazol-5-yl)-2-morpholin-4-yl-6,7-dihydro-5H-pyrrolo[2,3-d]pyrimidin-4-yl]-phenol]	76%	95%	98%
0.048 µM	CN1CCN(Cc2ccc(N3CCc4c(-c5cnc(N)nc5)nc(N5CCOCC5)nc43)cc2)CC1 [Example D-26, 5-{7-[4-(4-methyl-piperazin-1-ylmethyl)-phenyl]-2-morpholin-4-yl-6,7-dihydro-5H-pyrrolo[2,3-d]pyrimidin-4-yl}-pyrimidin-2-ylamine]	87%	84%	82%
0.03 µM	Nc1ncc(-c2nc(N3CCOCC3)nc3c2CCN3c2cccnc2)cn1 [Example B-02, 5-(2-Morpholin-4-yl-7-pyridin-3-yl-6,7-dihydro-5H-pyrrolo[2,3-d]pyrimidin-4-yl)-pyrimidin-2-ylamine]	87%	95%	96%
0.02 µM	CS(=O)(=O)Nc1cccc(N2CCc3c(-c4cccc(O)c4)nc(N4CCOCC4)nc32)c1 [Example A-48, N-{3-[4-(3-hydroxy-phenyl)-2-morpholin-4-yl-5,6-dihydro-pyrrolo[2,3-d]pyrimidin-7-yl]-phenyl}-methane sulfonamide trifluoroacetic acid salt]	55%	67%	62%
0.02 µM	CN(C)CCCNc1cc(N2CCc3c(-c4cccc(O)c4)nc(N4CCOCC4)nc32)ccn1 [Example H-12, 3-{7-[2-(3-Dimethylamino-propylamino)-pyridin-4-yl]-2-morpholin-4-yl-6,7-dihydro-5H-pyrrolo[2,3-d]pyrimidin-4-yl}-phenol]	82%	71%	76%
0.011 µM	CN1CCN(C(=O)c2ccc(NC(=S)N3CCc4c(-c5cnc(N)nc5)nc(N5CCOCC5)nc43)cc2)CC1 [Example D-231, 4-(2-Amino-pyrimidin-5-yl)-2-morpholin-4-yl-5,6-dihydro-pyrrolo[2,3-d]pyrimidine-7-carbothioic acid [4-(4-methyl-piperazine-1-carbonyl)-phenyl]-amide]	33%	71%	37%
0.01 µM	Nc1ncc(-c2nc(N3CCOCC3)nc3c2CCN3C(=O)Nc2c(F)cc(N3CCOCC3)cc2F)cn1 [Example D-273, 4-(2-Amino-pyrimidin-5-yl)-2-morpholin-4-yl-5,6-dihydro-pyrrolo[2,3-d]pyrimidine-7-carboxylic acid (2,6-difluoro-4-morpholin-4-yl-phenyl)-amide]	83%	67%	79%
0.008 µM	Nc1ncc(-c2nc(N3CCOCC3)nc3c2CCN3c2ccc(CC(=O)N3CCNCC3)cc2)cn1 [Example D-172, 2-{4-[4-(2-Amino-pyrimidin-5-yl)-2-morpholin-4-yl-5,6-dihydro-pyrrolo[2,3-d]pyrimidin-7-yl]-phenyl}-1-piperazin-1-yl-ethanone]	86%	79%	86%
0.007 µM	Cc1ccc(C(=O)N2CCN(C)CC2)cc1NC(=O)N1CCc2c(-c3cnc(N)nc3)nc(N3CCOCC3)nc21 [Example D-223, 4-(2-Amino-pyrimidin-5-yl)-2-morpholin-4-yl-5,6-dihydro-pyrrolo[2,3-d]pyrimidine-7-carboxylic acid [2-methyl-5-(4-methyl-piperazine-1-carbonyl)-phenyl]-amide]	95%	92%	95%
0.007 µM	Nc1ncc(-c2nc(N3CCOCC3)nc3c2CCN3C(=O)Nc2cccc(C(=O)N3CCOCC3)c2)cn1 [Example D-102, 4-(2-Amino-pyrimidin-5-yl)-2-morpholin-4-yl-5,6-dihydro-pyrrolo[2,3-d]pyrimidine-7-carboxylic acid [3-(morpholine-4-carbonyl)-phenyl]-amide]	72%	94%	70%
